pIC50: −log10 of the molar value. Converted amounts (≈) assume the structure as drawn. Where two headings read alike, the source gives them in different places.
Columns and labels:
[1] = Kinetic aqueous solubility at pH 7.4; assay type: physicochemical; conditions: read-out: Solubility
Experimental: 3) In vitro ADME - assays
The kinetic solubility assay was p erfo rmed using a miniaturised shake flask method. 10 mM stock solutions of each of the test compounds were used to prepare calibration standards (10-220 µM) in DMSO. The same 10 mM stock soluti ons were accurately dispensed in duplicat e into 96-well plates and the DMSO dried down (MiVac GeneVac, 90 min, 37 °C). Thereafter, the samples were reconstituted (200 µM) in phosphate buffered saline (pH 7. 4) and shaken (20 hours,25 °C). The solutions were centrifuged, and the supernatant was an alysed by means of HPLC-DAD (Agilent 1200 Rapid Resolution HPLC with a diode array detector). Best fit calibration curves were constructed using the calibration standards, which were used to determine the aqueous samples’ solubility.4
The metabolic stability assay was performed in dup licate in a 96-well micro t itre plate. The test compounds (0.1 µM) were incubated individually in mouse, rat and pooled human liver microsomes (final protei n concentration of 0.4 m g/mL; XenoTech, Lenexa, KS), suspended in 0.1M phosphate buffer (pH 7.4) for predetermined time points, in the presence and abs ence of the cofactor NADPH (1 mM). Reactions were quenched by adding 300 µL of ice cold acetonitrile containing internal standard (carbamazepine, 0.0236 µg/mL). The samples were centrifuged and test in the supernatant were an alysed by means of LC-MS/MS ((Agilent Rapid Resolution HPLC, AB SCIEX 4500 MS). The rel ative loss of parent compound over time w as monitored and plots (concentration vs. time) were prepared per compound to determine the first order rate constant for compound depletion. This was in turn used to calculate h alf-life, in vitro intrinsic clearance and in vivo hepatic extraction ratio. Metabolite search es were not conducted during the met abolic stability assay.5

CHO cell-line = experiment: Cytotoxicity, MTT assay, CHO cells; conditions: read-out: Cytotoxicity (CHO IC50)
Mtb H37Rv = experiment: MIC against Mtb H37Rv, Alamar Blue broth microdilution; assay type: cell-based, Mycobacterium tuberculosis
Mtb [2] = experiment: microbe, parasite or virus in culture; assay type: cell-based, Mycobacterium tuberculosis
Mtb [3] = experiment: Checkerboard (2D) MIC assay with Fe2+ in GAST media; assay type: cell-based, Mycobacterium tuberculosis; conditions: GAST medium, 100/200 μM Fe2+
SAWC1125 = experiment: microbe, parasite or virus in culture; assay type: cell-based; conditions: Mycobacterium tuberculosis, 336 h; typical Beijing; day 14
SAWC3933 = assay type: cell-based; conditions: T1
SAWC3906 = assay type: cell-based; conditions: atypic Beijing
SAWC3200 = experiment: microbe, parasite or virus in culture; assay type: cell-based; conditions: Mycobacterium tuberculosis, 336 h; X1; day 14
H37Rv = experiment: microbe, parasite or virus in culture; assay type: cell-based; conditions: Mycobacterium tuberculosis, 336 h, 7H9 medium, day 14
SAWC3385 = assay type: cell-based; conditions: Cas 1/Delhi
SAWC4046 = assay type: cell-based; conditions: Haarlem-like
SAWC3388 = assay type: cell-based; conditions: T1, Tuscany, T5/Rus
SAWC2371 = experiment: microbe, parasite or virus in culture; assay type: cell-based; conditions: Mycobacterium tuberculosis, 336 h; Haarlem; day 14
[4] = Mouse pharmacokinetics, i.v. and oral; conditions: for tolerability: mouse, i.v. 2 mg/kg or oral 20 mg/kg
WT H37Rv = experiment: microbe, parasite or virus in culture; assay type: cell-based, M. tuberculosis; conditions: Mycobacterium tuberculosis
in vivo = conditions: male, C57/BL6, mouse
[5] = mouse blood samples from the PK studies
mmpL3-TetON = experiment: microbe, parasite or virus in culture; assay type: cell-based, M. tuberculosis; conditions: for MIC / MIC50: Mycobacterium tuberculosis
[6] = system: panel of 21 liability targets; conditions: 10 μM test concentration
Rv3247c hypomorph = experiment: MIC against thymidylate kinase hypomorph; assay type: cell-based, Mycobacterium tuberculosis
Source text: Based on the structural similarity of the compounds with the published thymidylate kinase inhibitors,[39],[40] we asked whether this compound series can inhibit Mtb thymidylate kinase, which is an essential target encoded by Rv3247c. To investigate this, we tested the activity of the compounds 1, 2, and 12 against the Rv3247c hypomorph.

[7] = male, C57/BL6, mouse, whole blood, iv, 2 mg/kg
[8] = male, C57/BL6, mouse, whole blood, po, 20 mg/kg
[9] = Mycobacterium tuberculosis, H37RV, supplement csv, medium not stated
[10] = Mycobacterium tuberculosis, H37RV, antitubercular activity of the initial hits, medium not stated

Compound | MIC99 (SAWC1125) | MIC99 day 14, SAWC3933 (SAWC3933) | MIC99 day 14, SAWC3906 (SAWC3906) | MIC99 (SAWC3200) | MIC99 (H37Rv) | MIC99 day 14, SAWC3385 (SAWC3385) | MIC99 day 14, SAWC4046 (SAWC4046) | MIC99 day 14, SAWC3388 (SAWC3388) | MIC99 (SAWC2371) | MIC50 (WT H37Rv; experiment: Follow-Up) | MIC50 (WT H37Rv; experiment: Initial) | change in MIC on transcriptional silencing of mmpL3 (mmpL3-TetON) | MIC50 (mmpL3-TetON; experiment: Follow-Up) | MIC (mmpL3-TetON; experiment: Initial) | MIC50 (mmpL3-TetON; experiment: Initial) | MIC modulation upon silencing of Rv3247c (Rv3247c hypomorph) | further results
6-(3,5-Dimethyl-1H-pyrazol-1-yl)-4-phenylpyridin-2(1H)-one [Compound 5] |  |  |  |  |  |  |  |  |  |  |  |  |  |  |  |  | solubility at 20 h ([1]; aqueous (kinetic) solubility at pH 7.4): 185 µM; pIC50 (CHO cell-line): < 4.30; MIC (Mtb H37Rv): >50 µM; MIC (Mtb H37Rv; supplement csv, medium not stated): >50 µM
Cc1cc(Nc2ccccn2)n(-c2nc(C(F)(F)F)cc(=O)[nH]2)n1 [Compound 45, 2-(3-Methyl-5-(pyridin-2-ylamino)-1H-pyrazol-1-yl)-6-(trifluoromethyl)pyrimidin-4(3H)-one] |  |  |  |  |  |  |  |  |  |  |  |  |  |  |  |  | Fold-change of MIC (Mtb [2]; 200 µM Ferric ammonium citrate): 2-4 fold; MIC (Mtb [2]; Mycobacterium tuberculosis, […], supplement: None): 0.39 µM (≈ 0.131 µg/mL); increase in MIC (Mtb [3]): ≥ 32 fold; MIC (Mtb H37Rv; Mycobacterium tuberculosis, H37RV, 168 h): ≤ 1 µM
Cc1cc(C)n(-c2nc(-c3ccncc3)cc(=O)[nH]2)n1 [Compound 20, 2-(3,5-Dimethyl-1H-pyrazol-1-yl)-6-(pyridin-4-yl)pyrimidin-4(3H)-one] | 32 µM (≈ 8.55 µg/mL) | 16 µM (≈ 4.28 µg/mL) | 2 µM (≈ 0.535 µg/mL) | 1 to 2 µM (≈ 0.267 to 0.535 µg/mL) | 4 to 8 µM (≈ 1.07 to 2.14 µg/mL) | 2 to 4 µM | 2 to 4 µM | 4 to 8 µM | 2 to 4 µM (≈ 0.535 to 1.07 µg/mL) |  |  |  |  |  |  |  | 
CCNc1cc(C)nn1-c1nc(-c2cccnc2)cc(=O)[nH]1 [Compound 47, 2-(5-(Ethylamino)-3-methyl-1H-pyrazol-1-yl)-6-(pyridin-3-yl)pyrimidin-4(3H)-one] |  |  |  |  |  |  |  |  |  | 3.5 µM (≈ 1.04 µg/mL) | 2.5 µM (≈ 0.741 µg/mL) | no significant change | 3.2 µM (≈ 0.948 µg/mL) | 2.4 µM (≈ 0.711 µg/mL) | 2.1 µM (≈ 0.622 µg/mL) |  | AUC(0-inf) [4, 7]: 1.52 µM·h; CLint scaled [4, 7]: > 4000 mL/min/kg; Cmax [4, 7]: 2400 nM; Vd [4, 7]: 37.4 L/kg; AUC(0-inf) [4, 8]: 5.22 µM·h; Cmax [4, 8]: 2900 nM; Tmax [4, 8]: 0.5 h; bioavailability [4, 8]: 33%; tolerability [4]: well tolerated; half-life (in vivo; iv, 2 mg/kg): 5.6 h; half-life (in vivo; po, 20 mg/kg): 4.4 h; major metabolite [5]: glucuronide; MIC (mmpL3-TetON; experiment: Follow-Up): 4.4 µM (≈ 1.3 µg/mL); MIC (Mtb H37Rv; [9]): 6 µM (≈ 1.78 µg/mL)
CC(=O)Nc1cc(C)nn1-c1nc(-c2ccccc2)cc(=O)[nH]1 [Compound 15, N-(3-Methyl-1-(4-oxo-6-phenyl-1,4-dihydropyrimidin-2-yl)-1H-pyrazol-5-yl)acetamide] | 8 to 16 µM (≈ 2.47 to 4.95 µg/mL) | 8 µM (≈ 2.47 µg/mL) | 2 µM (≈ 0.619 µg/mL) | 1 µM (≈ 0.309 µg/mL) | 4 to 8 µM (≈ 1.24 to 2.47 µg/mL) | 2 µM (≈ 0.619 µg/mL) |  |  |  |  |  | no significant change |  |  |  |  | 
Cc1cc(C)n(-c2nc(O)cc(-c3ccccc3)n2)n1 [Compound 1, 2-(3,5-Dimethyl-1H-pyrazol-1-yl)-6-phenylpyrimidin-4(3H)-one] | 8 µM (≈ 2.13 µg/mL) | 2 to 4 µM | 0.25 µM (≈ 0.0666 µg/mL) | 0.25 µM (≈ 0.0666 µg/mL) | 1 to 2 µM (≈ 0.266 to 0.533 µg/mL) | 0.25 to 0.5 µM | 0.25 to 0.5 µM | 0.25 to 0.5 µM | 0.25 to 0.5 µM (≈ 0.0666 to 0.133 µg/mL) | 0.49 µM (≈ 0.13 µg/mL) | 0.26 µM (≈ 0.0692 µg/mL) | no significant change | 0.42 µM (≈ 0.112 µg/mL) | 0.7 µM (≈ 0.186 µg/mL) | 0.29 µM (≈ 0.0772 µg/mL) | did not observe any MIC modulation | MIC (WT H37Rv; experiment: Follow-Up): 0.78 µM (≈ 0.208 µg/mL); inhibition or activation of the enzyme/receptors [6]: no significant inhibition or activation; MIC (mmpL3-TetON; experiment: Follow-Up): 0.57 µM (≈ 0.152 µg/mL); MIC (Mtb H37Rv; [10]): < 2 µM; MIC (Mtb H37Rv; [9]): 1 µM (≈ 0.266 µg/mL)
Cc1cc(C)n(-c2nc(C(F)(F)F)cc(=O)[nH]2)n1 [Compound 12, 2-(3,5-Dimethyl-1H-pyrazol-1-yl)-6-(trifluoromethyl)pyrimidin-4(3H)-one] | 8 to 16 µM (≈ 2.07 to 4.13 µg/mL) |  | 2 µM (≈ 0.516 µg/mL) | 1 µM (≈ 0.258 µg/mL) | 2 µM (≈ 0.516 µg/mL) | 1 µM (≈ 0.258 µg/mL) | 1 µM (≈ 0.258 µg/mL) | 2 to 4 µM | 2 µM (≈ 0.516 µg/mL) | 8.3 µM (≈ 2.14 µg/mL) | 4.5 µM (≈ 1.16 µg/mL) | no significant change | 8.9 µM (≈ 2.3 µg/mL) | 6.2 µM (≈ 1.6 µg/mL) | 4.8 µM (≈ 1.24 µg/mL) | did not observe any MIC modulation | AUC(0-inf) at 24 h [4, 7]: 48.8 µM·h; clearance at 24 h [4, 7]: 2.7 mL/min/kg; bioavailability ([4]; male, C57/BL6, mouse, whole blood, oral, 20 mg/kg): ~40%; tolerability [4]: well tolerated; MIC (WT H37Rv; experiment: Initial): 5.4 µM (≈ 1.39 µg/mL); half-life at 24 h (in vivo; iv, 2 mg/kg): 3.1 h; half-life at 24 h (in vivo; po, 20 mg/kg): 4 h; inhibition or activation of the enzyme/receptors [6]: no significant inhibition or activation; solubility at 20 h ([1]; phosphate buffered saline, pH 7.4, aqueous (kinetic) solubility at pH 7.4): ≥ 200 µM; loss in activity (Mtb H37Rv; CH3 or CF3 at R1 instead of phenyl): 10–15 fold
Cc1ccc(Nc2cc(C)nn2-c2nc(C)cc(O)n2)cc1 [Compound 2, 6-Methyl-2-(3-methyl-5-(p-tolylamino)-1H-pyrazol-1-yl)pyrimidin-4(3H)-one] |  |  |  |  |  |  |  |  |  |  |  | no significant change |  |  |  | did not observe any MIC modulation | MIC (Mtb H37Rv; [10]): < 2 µM

Source: publication PMC7816196, “Antitubercular 2-Pyrazolylpyrimidinones: Structure–Activity Relationship and Mode-of-Action Studies” (Journal of Medicinal Chemistry, 2021)
